Source: patent US9943529B2, “Methods for reducing cellular proliferation and treating certain diseases” (BRIGHAM YOUNG UNIVERSITY, priority 2013, dated 2018)

Assays:
[1] = test system: KM12; assay: NCI screen antiproliferative activity, sulforhodamine B, Colon Cancer panel; assay type: cell-based, human; conditions: 48 hours, five 10-fold dilutions starting from 100 μM
[2] = test system: LOX IMVI; assay: NCI screen antiproliferative activity, sulforhodamine B, Melanoma panel; assay type: cell-based, human; conditions: 48 hours, five 10-fold dilutions starting from 100 μM
[3] = test system: MALME-3M; assay: as above; assay type: cell-based, human; conditions: 48 hours, five 10-fold dilutions starting from 100 μM
[4] = test system: EKVX; conditions: 48 hours, five 10-fold dilutions starting from 100 μM
[5] = test system: HOP-62; conditions: 48 hours, five 10-fold dilutions starting from 100 μM
[6] = test system: HOP-92; conditions: 48 hours, five 10-fold dilutions starting from 100 μM
[7] = test system: NCI-H226; conditions: 48 hours, five 10-fold dilutions starting from 100 μM
[8] = test system: NCI-H23; conditions: 48 hours, five 10-fold dilutions starting from 100 μM
[9] = test system: NCI-H322M; conditions: 48 hours, five 10-fold dilutions starting from 100 μM
[10] = test system: NCI-H460; conditions: 48 hours, five 10-fold dilutions starting from 100 μM
[11] = test system: HCC-2998; conditions: 48 hours, five 10-fold dilutions starting from 100 μM
[12] = test system: HCT-116; conditions: 48 hours, five 10-fold dilutions starting from 100 μM
[13] = test system: HCT-15; conditions: 48 hours, five 10-fold dilutions starting from 100 μM
[14] = test system: HT29; conditions: 48 hours, five 10-fold dilutions starting from 100 μM
[15] = test system: SF-268; conditions: 48 hours, five 10-fold dilutions starting from 100 μM
[16] = test system: SF-539; conditions: 48 hours, five 10-fold dilutions starting from 100 μM
[17] = test system: SNB-19; conditions: 48 hours, five 10-fold dilutions starting from 100 μM
[18] = test system: U251; conditions: 48 hours, five 10-fold dilutions starting from 100 μM
[19] = test system: SK-MEL-28; conditions: 48 hours, five 10-fold dilutions starting from 100 μM
[20] = test system: OVCAR-4; conditions: 48 hours, five 10-fold dilutions starting from 100 μM
[21] = test system: OVCAR-5; conditions: 48 hours, five 10-fold dilutions starting from 100 μM
[22] = test system: SK-OV-3; conditions: 48 hours, five 10-fold dilutions starting from 100 μM
[23] = test system: 786-0; conditions: 48 hours, five 10-fold dilutions starting from 100 μM
[24] = test system: PC-3; conditions: 48 hours, five 10-fold dilutions starting from 100 μM
[25] = test system: MCF7; conditions: 48 hours, five 10-fold dilutions starting from 100 μM
[26] = test system: MDA-MB-231/ATCC; conditions: 48 hours, five 10-fold dilutions starting from 100 μM
[27] = test system: BT-549; conditions: 48 hours, five 10-fold dilutions starting from 100 μM
[28] = test system: HOP-62; assay: cells; conditions: Homo sapiens, HOP-62, 48 h
[29] = test system: NCI-H226; assay: cells; conditions: Homo sapiens, NCI-H226, 48 h
[30] = test system: NCI-H322M; assay: cells; conditions: Homo sapiens, 48 h
[31] = test system: NCI-H522; assay: cells; conditions: Homo sapiens, NCI-H522, 48 h
[32] = test system: HCC-2998; assay: cells; conditions: Homo sapiens, HCC 2998, 48 h
[33] = test system: HCT-116; assay: cells; conditions: Homo sapiens, HCT-116, 48 h
[34] = test system: HT29; assay: cells; conditions: Homo sapiens, HT-29, 48 h
[35] = test system: SK-MEL-2; assay: cells; conditions: Homo sapiens, SK-MEL-2, 48 h
[36] = test system: UACC-257; assay: cells; conditions: Homo sapiens, UACC-257, 48 h
[37] = test system: OVCAR-8; assay: cells; conditions: Homo sapiens, OVCAR-8, 48 h
[38] = test system: SK-OV-3; assay: cells; conditions: Homo sapiens, SK-OV-3, 48 h
[39] = test system: 786-0; assay: cells; conditions: Homo sapiens, 786-0, 48 h
[40] = test system: CAKI-1; assay: cells; conditions: Homo sapiens, CAKI-1, 48 h
[41] = test system: RXF 393; assay: cells; conditions: Homo sapiens, RXF 393, 48 h
[42] = test system: DU-145; assay: cells; conditions: Homo sapiens, DU-145, 48 h
[43] = test system: MDA-MB-231/ATCC; assay: cells; conditions: Homo sapiens, MDA-MB-231, 48 h
[44] = test system: MDA-MB-435; assay: cells; conditions: Homo sapiens, MDA-MB-435, 48 h
[45] = test system: T-47D; assay: cells; conditions: Homo sapiens, T47D, 48 h

Structure (SMILES): CCCCCCCCNCCC[C@@H](C)[C@H]1CC[C@H]2[C@@H]3[C@H](OCCCN)C[C@@H]4C[C@H](OCCCN)CC[C@]4(C)[C@H]3C[C@H](OCCCN)[C@]12C [CSA-13]
- TGI [1]: 2.76 µM
- GI50 ([1]; Homo sapiens): 0.586 µM
- TGI [2]: 1.73 µM
- GI50 ([2]; Homo sapiens): 0.378 µM
- TGI [3]: 3.88 µM
- GI50 ([3]; Homo sapiens): 1.76 µM
- TGI [4]: 3.38 µM
- TGI [5]: 2.96 µM
- TGI [6]: 21.2 µM
- TGI [7]: 12.8 µM
- TGI [8]: 3.12 µM
- TGI [9]: 9.31 µM
- TGI [10]: 3.92 µM
- TGI [11]: 3.98 µM
- TGI [12]: 2.61 µM
- TGI [13]: 14.8 µM
- TGI [14]: 5.31 µM
- TGI [15]: 3.70 µM
- TGI [16]: 1.41 µM
- TGI [17]: 5.05 µM
- TGI [18]: 3.05 µM
- TGI [19]: 1.27 µM
- TGI [20]: 25.2 µM
- TGI [21]: 9.44 µM
- TGI [22]: 16.3 µM
- TGI [23]: 2.26 µM
- TGI [24]: >100 µM
- TGI [25]: 3.09 µM
- TGI [26]: 4.08 µM
- TGI [27]: 3.28 µM
- GI50 [28]: 0.806 µM
- CC50 ([28]; read-out: LC50): 9.74 µM
- GI50 [29]: 2.22 µM
- CC50 ([29]; read-out: LC50): 66.8 µM
- GI50 [30]: 1.36 µM
- CC50 ([30]; read-out: LC50): > 100 µM
- GI50 [31]: 2.59 µM
- CC50 ([31]; read-out: LC50): > 100 µM
- GI50 [32]: 1.51 µM
- CC50 ([32]; read-out: LC50): 13.3 µM
- GI50 [33]: 0.87 µM
- CC50 ([33]; read-out: LC50): 7.25 µM
- GI50 [34]: 1.11 µM
- CC50 ([34]; read-out: LC50): 34 µM
- GI50 [35]: 4.51 µM
- CC50 ([35]; read-out: LC50): > 100 µM
- GI50 [36]: 2.71 µM
- CC50 ([36]; read-out: LC50): 97.9 µM
- GI50 [37]: 1.64 µM
- CC50 ([37]; read-out: LC50): 9.82 µM
- GI50 [38]: 3.45 µM
- CC50 ([38]; read-out: LC50): 93.1 µM
- GI50 [39]: 0.837 µM
- CC50 ([39]; read-out: LC50): 5.4 µM
- GI50 [40]: 2.05 µM
- CC50 ([40]; read-out: LC50): 68 µM
- GI50 [41]: 1.54 µM
- CC50 ([41]; read-out: LC50): > 100 µM
- GI50 [42]: 1.14 µM
- CC50 ([42]; read-out: LC50): 4.85 µM
- GI50 [43]: 0.422 µM
- CC50 ([43]; read-out: LC50): > 100 µM
- GI50 [44]: 0.318 µM
- CC50 ([44]; read-out: LC50): 5.68 µM
- GI50 [45]: 1.92 µM
- CC50 ([45]; read-out: LC50): > 100 µM
